# Where two headings read alike, the source gives them in different places.
# Columns and labels:
# human h-15-LOX-1 = target: T1, human h-15-LOX-1 (Homo sapiens, UniProt P16050); experiment: Human h-15-LOX-1 screening UV assay; assay type: biochemical; settings: read-out: h-15-LOX-1 Inhb. IC50
# T1 sequence (P16050 1-662): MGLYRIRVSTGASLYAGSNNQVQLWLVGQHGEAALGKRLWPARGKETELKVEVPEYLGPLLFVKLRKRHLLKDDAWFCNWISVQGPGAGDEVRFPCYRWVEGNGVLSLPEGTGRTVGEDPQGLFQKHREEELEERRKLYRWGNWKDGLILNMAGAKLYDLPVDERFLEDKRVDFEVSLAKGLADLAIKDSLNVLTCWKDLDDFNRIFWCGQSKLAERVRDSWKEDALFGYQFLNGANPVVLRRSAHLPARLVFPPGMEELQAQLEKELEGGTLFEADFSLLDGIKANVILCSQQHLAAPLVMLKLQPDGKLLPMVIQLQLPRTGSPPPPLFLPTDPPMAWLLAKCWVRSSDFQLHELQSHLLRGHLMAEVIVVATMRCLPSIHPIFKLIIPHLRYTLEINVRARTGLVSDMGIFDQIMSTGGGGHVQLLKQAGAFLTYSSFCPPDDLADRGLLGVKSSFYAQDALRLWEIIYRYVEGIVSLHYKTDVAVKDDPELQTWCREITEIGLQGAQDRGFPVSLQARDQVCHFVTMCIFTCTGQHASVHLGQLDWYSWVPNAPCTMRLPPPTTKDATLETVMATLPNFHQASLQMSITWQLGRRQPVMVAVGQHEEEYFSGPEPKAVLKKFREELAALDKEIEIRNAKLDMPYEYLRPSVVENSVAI
# Experimental: The residual enzyme activity was measured after 10 min pre-incubation with the tested compounds at room temperature. […] Compound c11 follows.
# The assay buffer consists of HEPES titrated to pH 7.5 using a concentrated aqueous solution of NaOH. Linoleic acid (LA) was used as a substrate. The linear absorbance increase in absence of the inhibitor was set as 100%, whereas the absorbance increase in absence of the enzyme was set to 0%. All experiments were performed in triplicate and the average triplicate values and their standard deviations are plotted. The vertical axis describes the residual enzyme activity percent % of the human h-15-LOX-1, whereas the horizontal axis describes the concentration of 50 µM of the compounds. The half maximal inhibitor concentration (IC50) of the inhibitors for h-15-LOX-1 was determined using the same assay (Figure 6 and Figure 7).
# [1] = target: T2, acetyl-cholinesterase (AChE) (Electrophorus electricus, UniProt O42275); assay type: biochemical
# T2 sequence (O42275 24-633): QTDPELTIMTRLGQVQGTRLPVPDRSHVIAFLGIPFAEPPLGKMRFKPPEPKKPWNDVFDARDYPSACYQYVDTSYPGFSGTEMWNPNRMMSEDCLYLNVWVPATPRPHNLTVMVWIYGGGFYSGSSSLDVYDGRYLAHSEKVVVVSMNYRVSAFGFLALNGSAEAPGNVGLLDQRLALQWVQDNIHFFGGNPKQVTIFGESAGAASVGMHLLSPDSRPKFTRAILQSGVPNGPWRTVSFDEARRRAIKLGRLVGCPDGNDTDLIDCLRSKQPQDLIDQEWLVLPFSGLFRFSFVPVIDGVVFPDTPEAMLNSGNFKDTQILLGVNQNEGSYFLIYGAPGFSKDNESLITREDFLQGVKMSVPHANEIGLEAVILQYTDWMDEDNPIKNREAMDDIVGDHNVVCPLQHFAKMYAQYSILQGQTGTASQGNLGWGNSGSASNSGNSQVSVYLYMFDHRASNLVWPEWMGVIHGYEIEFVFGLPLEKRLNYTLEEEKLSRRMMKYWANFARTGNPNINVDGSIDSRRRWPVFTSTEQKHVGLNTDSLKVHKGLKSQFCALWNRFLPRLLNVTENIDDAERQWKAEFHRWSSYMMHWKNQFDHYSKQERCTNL
# Experimental: We investigated, in vitro, the inhibitory activity of a, b, c, and e derivatives on acetylcholinesterase activity using acetylthiocholine as a substrate [29].
# A modified procedure which was followed in our previous publication was performed [29]. A stock solution (10 mM) of the compounds diluted in DMSO was used (final concentration 100 µM).
# [2] = Inhibition of linoleic acid lipid peroxidation (AAPH)
# Summary of the method: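 Sodium linoleate oxidation was initiated by AAPH in 0.05 M phosphate buffer, pH 7.4, at 37 °C, with test compound present and DMSO as blank. Conjugated diene hydroperoxide formation was followed as the absorbance increase at 234 nm.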
# [3] = Lipophilicity as RM values by RP-TLC; assay type: physicochemical; set-up: key: RM = log[(1/Rf) − 1]; settings: methanol/water 70/30, SD < 10%
# Summary of the method: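 Reversed-phase TLC on silica gel plates impregnated with 5% (v/v) liquid paraffin, methanol/water 70/30 (v/v) mobile phase, saturated tanks at 24 °C, UV detection. RM = log[(1/Rf) − 1] from five Rf measurements.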
# [4] = ABTS•+ decolorization assay
# Summary of the method: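 Compounds (10 mM DMSO stocks, diluted) added to ABTS•+ radical generated by potassium persulfate oxidation of ABTS. Decolorization followed as absorbance at room temperature, with Trolox as standard.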
# soybean lipoxygenase [5] = target: T3, soybean lipoxygenase (Glycine max, UniProt P08170); experiment: biochemical; assay type: biochemical; settings: soybean LOX
# T3 sequence (P08170 1-839): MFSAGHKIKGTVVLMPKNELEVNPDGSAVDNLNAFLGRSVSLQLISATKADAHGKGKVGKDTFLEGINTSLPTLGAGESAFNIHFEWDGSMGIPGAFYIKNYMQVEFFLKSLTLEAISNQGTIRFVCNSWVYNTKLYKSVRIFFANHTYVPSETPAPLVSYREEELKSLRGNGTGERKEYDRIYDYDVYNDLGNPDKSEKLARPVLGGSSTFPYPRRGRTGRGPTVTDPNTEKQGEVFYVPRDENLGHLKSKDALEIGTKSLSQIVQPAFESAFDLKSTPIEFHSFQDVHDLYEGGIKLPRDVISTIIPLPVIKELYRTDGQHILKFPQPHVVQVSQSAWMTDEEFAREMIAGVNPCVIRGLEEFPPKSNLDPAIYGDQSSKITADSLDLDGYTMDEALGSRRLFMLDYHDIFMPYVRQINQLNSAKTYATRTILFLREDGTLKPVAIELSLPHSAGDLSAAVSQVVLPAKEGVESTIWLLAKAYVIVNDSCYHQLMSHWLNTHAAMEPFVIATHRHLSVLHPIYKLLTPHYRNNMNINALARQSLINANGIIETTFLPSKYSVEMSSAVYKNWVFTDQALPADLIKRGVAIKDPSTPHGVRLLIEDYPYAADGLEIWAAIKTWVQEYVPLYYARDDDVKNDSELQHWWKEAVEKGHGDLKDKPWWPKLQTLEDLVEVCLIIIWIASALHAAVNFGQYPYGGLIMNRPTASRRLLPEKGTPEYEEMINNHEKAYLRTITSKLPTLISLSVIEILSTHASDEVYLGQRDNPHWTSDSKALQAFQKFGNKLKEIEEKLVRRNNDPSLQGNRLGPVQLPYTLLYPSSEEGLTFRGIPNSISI
# Summary of the method: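 Soybean LOX (enzyme solution 1/9 × 10^−4 w/v in saline) incubated at room temperature with sodium linoleate ([…]) in tris buffer pH 9. Compounds added from DMSO stocks. IC50 derived from several concentrations.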
# [6] = Reducing activity with the stable radical DPPH
# Summary of the method: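 DPPH (final 0.05 mM) in absolute ethanol mixed with an equal volume of compound at 0.05 or 0.1 mM, ethanol as control. Absorbance at 517 nm read at room temperature after 20 and 60 min, expressed as reducing activity RA%.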
# [7] = system: L929 mouse fibroblasts cells; experiment: Cytotoxicity, propidium iodide fluorescence method; assay type: cell-based; settings: 24-h incubation
# Summary of the method: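 L929 cells in EMEM with 10% horse serum were allowed to attach for 24 h, then exposed to 1, 10, 20, 50 and 100 μM compound for 24 h at 37 °C. Cells were detached, stained with propidium iodide, and cell death was measured by flow cytometry.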
# [8] = set-up: method as in PMID 25798685; settings: cited from earlier work
# [9] = set-up: method as in PMID 25798685; settings: cited from earlier work; remark: listed apart in the source
# [10] = set-up: method as in PMID 25798685; settings: RP-TLC, methanol/water 70/30, SD < 10%; cited from earlier work
# soybean lipoxygenase [11] = target: T3, soybean lipoxygenase; set-up: method as in PMID 25798685; settings: 100 μM; cited from earlier work
# Aβ40 = target: T4, Aβ40 (Homo sapiens, UniProt P05067); experiment: Circular dichroism study of Aβ40 aggregation; settings: 50 µM compound, 50 µM Aβ40 (1:1), PB pH 7.33, 33 °C, 40 days
# T4 construct: Amyloid peptide Aβ40 was purchased from AnaSpec Co; purchased AnaSpec Co. (Fremont, CA, USA)
# T4 sequence (P05067 672-711 limits assumed): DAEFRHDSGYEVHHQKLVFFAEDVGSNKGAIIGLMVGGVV
# Excerpt: The pathogenesis of Alzheimer’s disease (AD) is widely associated with the aggregation of β-amyloid peptide (Aβ) either to soluble oligomers or to higher-order polymeric insoluble fibrils. As a result, one of the main therapeutic strategies against AD targets the aggregation process of Aβ, and a great number of small molecules are being investigated for their potential to intervene in the assembly of Aβ and inhibit its neurotoxicity in vitro and in vivo [64]. Circular dichroism (CD) spectroscopy is commonly used to probe the secondary structure of polypeptides and to monitor conformational changes and interactions of polypeptides with small molecules. The typical aggregation process of Aβ produces characteristic CD spectra over time that reflect the conformational changes that occur as the random coil monomers are converted into β-sheet oligomers, and then gradually to larger β-sheet formations that finally produce amyloid fibrils. CD is, therefore, a valuable tool to monitor the aggregation process of Aβ and to study the effect of potential aggregation inhibitors. To further investigate the pleiotropic effects of chalcones against AD, selected compounds from our library, were subjected to CD studies in order to evaluate their potential to interfere with the aggregation process of Aβ40. […] The aggregation spectra of plain Aβ40 show at day 0 the typical random coil peak (negative maximum at 198 nm) the intensity of which gradually decreases as the peptide forms β–sheet structures (negative maximum at 222 nm, day 15) that further aggregate to higher order polymeric fibrils. The precipitation of the insoluble fibrils from solution eventually results in the loss of CD signal (days 30 and 40). […] In view of the above results, chalcone derivatives bearing a three-carbon chain linker, specifically c2, c3, and c4, were subsequently studied in order to assess the effect of further derivatization and the presence of the chalcone moiety in the structure. […] Overall, our CD study identified three new structures capable of interfering with the aggregation process of Aβ, out of which compounds c2 and c4 display additional protective actions against AD and add to the pleiotropic profile of the chalcone derivatives.
# Preparation of Aβ stocks and solutions. Amyloid peptide Aβ40 was purchased from AnaSpec Co. (Fremont, CA, USA) (>95% pure). Aβ40 was gently dissolved without vortexing in Type 1 (Milli-Q) water to a final concentration of 100 μM. Solutions of Aβ in phosphate buffer (PB, 10 mM, pH 7.33) were prepared by adding equal volumes of PB to aliquots of the aqueous solution stock to achieve final concentration of 50 µM. The proper amount of the compounds c2, c3, c4, di, dii, and dvi were added to the Aβ solutions to achieve concentration of 50 μM. The secondary structural changes of Aβ were monitored for 40 days by CD. During this period, the amyloid peptide solutions were kept at an incubator at 33 °C under quiescent conditions.
# Circular dichroism measurements. CD spectra were recorded on a JASCO J-715 spectropolarimeter (Jasco Co., Tokyo, Japan), at 33 °C in the range of 190–260 nm with a 1 mm path length quartz cuvette. Each spectrum was the average of three scans at a speed of 100 nm·min^−1 and a resolution of 0.5 nm. Three independent experiments were run for each condition and in each case solutions of plain Aβ were run as control (Figure 8). The analysis of the CD data was performed using the OriginPro 9 program.
# [12] = set-up: method as in PMID 25798685; settings: DPPH, cited from earlier work
# [13] = system: L929 mouse fibroblasts cells; set-up: method as in PMID 25798685; settings: 24-h incubation, cited from earlier work
# [14] = target: T2, acetyl-cholinesterase (AChE); settings: cited from earlier work
# [15] = In vitro lipid peroxidation of liposomes
SMILES,% AChE Inhb. @ 100 μM [1],AAPH% @ 100 μM (anti-lipid peroxidation) [2],RM [3],ABTS•+ Inhb. % @ 100 μM [4],% LOX Inhb. @ 100 μM (soybean lipoxygenase [5]),RA% 100 μM 20 min [6],RA% 100 μM 60 min [6],1 μM Average (% pi) ± σ [7],10 μM Average (% pi) ± σ [7],20 μM Average (% pi) ± σ [7],50 μM Average (% pi) ± σ [7],100 μM Average (% pi) ± σ [7],also measured
"c1ccc2c(c1)SCc1c-2[nH]c2ccccc12 [PD-146176, reference compound]",–,–,–,–,–,–,–,–,–,–,–,–,IC50 (human h-15-LOX-1): 16 µM
"O=C(/C=C/C1=C2C=CC=CC2NC1)c1ccc(O)cc1 (stereo not shown) [a6, (E)-3-(2,7a-dihydro-1H-indol-3-yl)-1-(4-hydroxyphenyl) prop-2-en-1-one]",Νο,45%,−0.65,No,60%,15%,2%,1.71 ± 2.08%,1.66 ± 0.59%,3.25 ± 2.6%,6.67 ± 1.35%,6.67 ± 1.35%,–
"O=C(/C=C/c1cccc2ccccc12)c1ccc(OCCCOc2ccc(C(=O)/C=C/c3cccc4ccccc34)cc2)cc1 [c4, (2E,2′E)-1, 1′-((propane-1,3-diylbis-(oxy))bis-(4,1-phenylene)) bis-(3-(naphthalen-1-yl)prop-2-en-1-one)]",–,–,–,–,–,–,–,–,–,–,–,–,AAPH% @ 100 μM (anti-lipid peroxidation) [8]: 95%; ABTS•+ Inhb. % @ 100 μM [9]: no; RM [10]: 0.43; % LOX Inhb. @ 100 μM (soybean lipoxygenase [11]): 100%; effect on the aggregation process of Aβ40 (CD spectra) (Aβ40): stabilized β-sheet assemblies that did not evolve further into insoluble fibrillar aggregates; RA% 100 μM 20 min ([12]; 20 min): 19%; RA% 100 μM 60 min ([12]; 60 min): 50%; 1 μM Average (% pi) ± σ ([13]; 1 μM): 29.5 ± 3.5%; 10 μM Average (% pi) ± σ ([13]; 10 μM): 42 ± 4.6%; 20 μM Average (% pi) ± σ ([13]; 20 μM): 46 ± 5.6%; 50 μM Average (% pi) ± σ ([13]; 50 μM): 67 ± 9.2%; 100 μM Average (% pi) ± σ ([13]; 100 μM): 67 ± 9.2%; % AChE Inhb. @ 100 μM [14]: 58%; % Inhb. of Liposomes LP @ 100 μM [15]: 3%
"O=C(/C=C/c1c[nH]c2ccccc12)c1ccc(OCCCOc2ccc(C(=O)/C=C/c3c[nH]c4ccccc34)cc2)cc1 [c6, (2E,2′E)-1,1′-((propane-1,3-diylbis(oxy))bis(4,1-phenylene))bis(3-(1H-indol-3-yl)prop-2-en-1-one)]",did not present any activity and Νο,100%,−0.97,No,98%,No,No,1.12 ± 1.15%,2.2 ± 1.66%,1.16 ± 0.81%,3.03 ± 0.02%,3.03 ± 0.02%,IC50 (soybean lipoxygenase [5]; read-out: LOX IC50): 54 µM

# Reference: paper PMC6337391 (Molecules, 2019)
